Assay [1] deals with trimers (soluble gp120 trimer). As to the kind of experiment: Surface Plasmon Resonance binding to trimers. Details: species or system HIV. The settings on record: compared with monomeric CD4M9. The source says:
Recently, the X-ray crystal structure of free gp120 was solved (1) and along with X-ray tomography images of envelope spikes (3), used to build a computational model of the envelope trimer (1). […] The line between the binding sites is a “ruler” divided into 1 nm units, which was used to estimate distances between binding sites.

For a further assay, the system named is HIV. The settings on record: compared with monomeric CD4M9; used with surface HIV virion; cited from earlier work.

No end group written: not given here.

In the case of “bi-CD4M9-MS: bivalent polypeptide containing two CD4M9 moieties separated by polyethylene glycol linker placing the binding residues 5.2 nm apart (CNLATCQLTCKSLGLLGKCAGSFCACGP; cysteine pairing not given here; also: bivalent: two CD4M9 moieties joined by a polyethylene glycol linker)”, the “forward rate constant for binding” value in assay [1] is reported as “significantly different from monomeric CD4M9”. Moreover, the HIV inhibition entry in the assay on HIV is reported as “more potent HIV inhibition than monomeric CD4M9”.

Source of the values: US20100221241A1, “C[…] ENVELOPE-BASED IMMUNOGEN THAT SIMU[…] RECEPTOR AND […] SITES” (UNIVERSITY OF MARYLAND BIOTECHNOLOGY INSTITUTE, priority 2005, published 2010).
